Source: paper PMC10940605, “Design, synthesis and in vitro anticancer activity of some new lomefloxacin derivatives” (Scientific Reports, 2024)

Tests used:
Test in all cases: NCI-60 SRB screen
Format in all cases: cell-based
786-0 = conditions: Homo sapiens; 786-0, 10^–5 Molar; read-out: Percent growth inhibition
Method in brief: (§1)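 Single-dose screen at 10^−5 M; cells pre-grown 24 h in RPMI 1640 with 2 mM L-glutamine and FBS at 37 °C, then exposed to compound for 48 h. TCA fixation, SRB staining, absorbance at […] nm. Percent growth computed against time-zero (Tz) and untreated control growth.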

A549/ATCC = conditions: Homo sapiens, 10^–5 Molar, read-out: Percent growth inhibition
Method in brief: (§2)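 Growth inhibition derived from SRB-stained protein read at […], normalised to cell density at drug addition and to drug-free controls. Exposure: 48 h at 10^−5 M in RPMI 1640 with L-glutamine and fetal bovine serum.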

ACHN = conditions: Homo sapiens, 10^–5 Molar, read-out: Percent growth inhibition
Method in brief: as §1

CAKI-1 = conditions: Homo sapiens; CAKI-1, 10^–5 Molar; read-out: Percent growth inhibition
Method in brief: as §2

CCRF-CEM = conditions: Homo sapiens, 10^–5 Molar, read-out: Percent growth inhibition
Method in brief: as §2

EKVX = conditions: Homo sapiens, 10^–5 Molar, read-out: Percent growth inhibition
Method in brief: as §2

HS 578T = conditions: Homo sapiens, 10^–5 Molar, read-out: Percent growth inhibition
Method in brief: as §2

K-562 = conditions: Homo sapiens, K562; K-562, 10^–5 Molar; read-out: Percent growth inhibition
Method in brief: as §1

KM12 = conditions: Homo sapiens; KM12, 10^–5 Molar; read-out: Percent growth inhibition
Method in brief: as §1

LOX IMVI = conditions: Homo sapiens, 10^–5 Molar, read-out: Percent growth inhibition
Method in brief: as §1

MALME-3M = conditions: Homo sapiens, 10^–5 Molar, read-out: Percent growth inhibition
Method in brief: as §1

MCF7 = conditions: Homo sapiens; MCF7, 10^–5 Molar; read-out: Percent growth inhibition
Method in brief: as §2

NCI-H226 = conditions: Homo sapiens; NCI-H226, 10^–5 Molar; read-out: Percent growth inhibition
Method in brief: as §1

NCI-H23 = conditions: Homo sapiens; NCI-H23, 10^–5 Molar; read-out: Percent growth inhibition
Method in brief: as §2

NCI-H322M = conditions: Homo sapiens, 10^–5 Molar, read-out: Percent growth inhibition
Method in brief: as §2

NCI/ADR-RES = conditions: Homo sapiens, 10^–5 Molar, read-out: Percent growth inhibition
Method in brief: as §1

OVCAR-8 = conditions: Homo sapiens; OVCAR-8, 10^–5 Molar; read-out: Percent growth inhibition
Method in brief: as §2

PC-3 = conditions: Homo sapiens; PC-3, 10^–5 Molar; read-out: Percent growth inhibition
Method in brief: as §1

SF-268 = conditions: Homo sapiens; SF-268, 10^–5 Molar; read-out: Percent growth inhibition
Method in brief: as §1

SF-539 = conditions: Homo sapiens; SF-539, 10^–5 Molar; read-out: Percent growth inhibition
Method in brief: as §2

SNB-19 = conditions: Homo sapiens; SNB-19, 10^–5 Molar; read-out: Percent growth inhibition
Method in brief: as §1

SNB-75 = conditions: Homo sapiens; SNB-75, 10^–5 Molar; read-out: Percent growth inhibition
Method in brief: as §2

SW-620 = conditions: Homo sapiens; SW-620, 10^–5 Molar; read-out: Percent growth inhibition
Method in brief: as §2

T-47D = conditions: Homo sapiens, T47D, 10^–5 Molar, read-out: Percent growth inhibition
Method in brief: as §1

UO-31 = conditions: Homo sapiens; UO-31, 10^–5 Molar; read-out: Percent growth inhibition
Method in brief: as §2

melanoma SK-MEL-5 = conditions: Homo sapiens; SK-MEL-5, 10^–5 Molar; read-out: Percent growth inhibition
Method in brief: as §1

## CCn1cc(C(=O)NN=Cc2ccccc2)c(=O)c2cc(F)c(N3CCNC(C)C3)c(F)c21 (stereo not drawn) [Compound 3a, N'-Benzylidene-1-ethyl-6,8-difluoro-7-(3-methylpiperazin-1-yl)-4-oxo-1,4-dihydroquinoline-3-carbohydrazide]
786-0
  inhibition at 10 µM: 167%
A549/ATCC
  inhibition at 10 µM: 184%
ACHN
  inhibition at 10 µM: 43.2%
CAKI-1
  inhibition at 10 µM: 54.2%
CCRF-CEM
  inhibition at 10 µM: 152%
EKVX
  inhibition at 10 µM: 65.7%
HS 578T
  inhibition at 10 µM: 30.3%
K-562
  inhibition at 10 µM: 139%
KM12
  inhibition at 10 µM: 189%
LOX IMVI
  inhibition at 10 µM: 187%
MALME-3M
  inhibition at 10 µM: 178%
MCF7
  inhibition at 10 µM: 184%
NCI-H226
  inhibition at 10 µM: 12.6%
NCI-H23
  inhibition at 10 µM: 31.5%
NCI-H322M
  inhibition at 10 µM: 47.5%
NCI/ADR-RES
  inhibition at 10 µM: 44%
OVCAR-8
  inhibition at 10 µM: 71.6%
PC-3
  inhibition at 10 µM: 51.1%
SF-268
  inhibition at 10 µM: 61.1%
SF-539
  inhibition at 10 µM: 187%
SNB-19
  inhibition at 10 µM: 81.1%
SNB-75
  inhibition at 10 µM: 7.18%
SW-620
  inhibition at 10 µM: 181%
T-47D
  inhibition at 10 µM: 36.4%
UO-31
  inhibition at 10 µM: 52.5%
Melanoma SK-MEL-5
  inhibition at 10 µM: 88.1%

## CCn1cc(C(=O)NN=Cc2cccc(F)c2)c(=O)c2cc(F)c(N3CCNC(C)C3)c(F)c21 (stereo not drawn) [Compound 3b, 1-Ethyl-6,8-difluoro-N′-(3-fluorobenzylidene)-7-(3-methylpiperazin-1-yl)-4-oxo-1,4-dihydroquinoline-3-carbohydrazide]
786-0
  inhibition at 10 µM: 140%
A549/ATCC
  inhibition at 10 µM: 167%
ACHN
  inhibition at 10 µM: 25.6%
CAKI-1
  inhibition at 10 µM: 33.3%
CCRF-CEM
  inhibition at 10 µM: 147%
EKVX
  inhibition at 10 µM: 49.2%
HS 578T
  inhibition at 10 µM: 18.7%
K-562
  inhibition at 10 µM: 152%
KM12
  inhibition at 10 µM: 127%
LOX IMVI
  inhibition at 10 µM: 191%
MALME-3M
  inhibition at 10 µM: 167%
MCF7
  inhibition at 10 µM: 184%
NCI-H226
  inhibition at 10 µM: 2.9%
NCI-H23
  inhibition at 10 µM: 23.8%
NCI-H322M
  inhibition at 10 µM: 16.6%
NCI/ADR-RES
  inhibition at 10 µM: 21.6%
OVCAR-8
  inhibition at 10 µM: 105%
PC-3
  inhibition at 10 µM: 30.4%
SF-268
  inhibition at 10 µM: 60.6%
SF-539
  inhibition at 10 µM: 105%
SNB-19
  inhibition at 10 µM: 159%
SNB-75
  inhibition at 10 µM: 9.9%
SW-620
  inhibition at 10 µM: 185%
T-47D
  inhibition at 10 µM: 27.7%
UO-31
  inhibition at 10 µM: 79.4%
Melanoma SK-MEL-5
  inhibition at 10 µM: 47.4%

## CCn1cc(C(=O)NN=Cc2ccc(Br)cc2)c(=O)c2cc(F)c(N3CCNC(C)C3)c(F)c21 (stereo not drawn) [Compound 3c, N'-(4-Bromobenzylidene)-1-ethyl-6,8-difluoro-7-(3-methylpiperazin-1-yl)-4-oxo-1,4-dihydroquinoline-3-carbohydrazide]
786-0
  inhibition at 10 µM: 36.1%
A549/ATCC
  inhibition at 10 µM: 54.7%
ACHN
  inhibition at 10 µM: 11.2%
CAKI-1
  inhibition at 10 µM: 31.5%
CCRF-CEM
  inhibition at 10 µM: 70.3%
EKVX
  inhibition at 10 µM: 13.1%
HS 578T
  inhibition at 10 µM: 26.9%
K-562
  inhibition at 10 µM: 113%
KM12
  inhibition at 10 µM: 52.1%
LOX IMVI
  inhibition at 10 µM: 178%
MALME-3M
  inhibition at 10 µM: 41.3%
MCF7
  inhibition at 10 µM: 177%
NCI-H226
  inhibition at 10 µM: 2.69%
NCI-H23
  inhibition at 10 µM: 9.03%
NCI-H322M
  inhibition at 10 µM: 14.2%
NCI/ADR-RES
  inhibition at 10 µM: 16.7%
OVCAR-8
  inhibition at 10 µM: 42.2%
PC-3
  inhibition at 10 µM: 31.6%
SF-268
  inhibition at 10 µM: 37.4%
SF-539
  inhibition at 10 µM: 28.6%
SNB-19
  inhibition at 10 µM: 45.5%
SNB-75
  inhibition at 10 µM: 14.4%
SW-620
  inhibition at 10 µM: 174%
T-47D
  inhibition at 10 µM: 36%
UO-31
  inhibition at 10 µM: 31.6%
Melanoma SK-MEL-5
  inhibition at 10 µM: 17.6%

## CCn1cc(C(=O)NN=Cc2cccnc2)c(=O)c2cc(F)c(N3CCNC(C)C3)c(F)c21 (stereo not drawn) [Compound 3d, 1-Ethyl-6,8-difluoro-7-(3-methylpiperazin-1-yl)-4-oxo-N'-(pyridin-3-ylmethylene)-1,4-dihydroquinoline-3-carbohydrazide]
786-0
  inhibition at 10 µM: 54.1%
A549/ATCC
  inhibition at 10 µM: 14.4%
ACHN
  inhibition at 10 µM: 13.6%
CAKI-1
  inhibition at 10 µM: 67.8%
CCRF-CEM
  inhibition at 10 µM: 54.3%
EKVX
  inhibition at 10 µM: 37.2%
HS 578T
  inhibition at 10 µM: 57.8%
K-562
  inhibition at 10 µM: 71.9%
KM12
  inhibition at 10 µM: 20.7%
LOX IMVI
  inhibition at 10 µM: 82%
MALME-3M
  inhibition at 10 µM: 40%
MCF7
  inhibition at 10 µM: 80.9%
NCI-H226
  inhibition at 10 µM: 58.2%
NCI-H23
  inhibition at 10 µM: 50.9%
NCI-H322M
  inhibition at 10 µM: 41.9%
NCI/ADR-RES
  inhibition at 10 µM: 2.29%
OVCAR-8
  inhibition at 10 µM: 70%
PC-3
  inhibition at 10 µM: 49.1%
SF-268
  inhibition at 10 µM: 63%
SF-539
  inhibition at 10 µM: 68.2%
SNB-19
  inhibition at 10 µM: 69.5%
SNB-75
  inhibition at 10 µM: 41.1%
SW-620
  inhibition at 10 µM: 73.9%
T-47D
  inhibition at 10 µM: 52.6%
UO-31
  inhibition at 10 µM: 12.5%
Melanoma SK-MEL-5
  inhibition at 10 µM: 34.8%

## CCn1cc(C(=O)O)c(=O)c2cc(F)c(N3CCN(CC(=O)Nc4ccc(Cl)cc4)C(C)C3)c(F)c21 (stereo not drawn) [Compound 5b, 7-(4-(2-((4-Chlorophenyl)amino)-2-oxoethyl)-3-methylpiperazin-1-yl)-1-ethyl-6,8-difluoro-4-oxo-1,4-dihydroquinoline-3-carboxylic acid]
A549/ATCC
  inhibition at 10 µM: 6.12%
ACHN
  inhibition at 10 µM: 14%
CAKI-1
  inhibition at 10 µM: 13.7%
CCRF-CEM
  inhibition at 10 µM: 2.48%
EKVX
  inhibition at 10 µM: 3.04%
HS 578T
  inhibition at 10 µM: 11.2%
K-562
  inhibition at 10 µM: 14.2%
KM12
  inhibition at 10 µM: 3.94%
LOX IMVI
  inhibition at 10 µM: 9.13%
MALME-3M
  inhibition at 10 µM: 4.32%
MCF7
  inhibition at 10 µM: 10.6%
NCI-H226
  inhibition at 10 µM: 3.83%
NCI-H23
  inhibition at 10 µM: 7.93%
NCI-H322M
  inhibition at 10 µM: 13.8%
NCI/ADR-RES
  inhibition at 10 µM: 8.06%
OVCAR-8
  inhibition at 10 µM: 7.15%
PC-3
  inhibition at 10 µM: 12.1%
SF-268
  inhibition at 10 µM: 6.49%
SF-539
  inhibition at 10 µM: 4.4%
SNB-19
  inhibition at 10 µM: 1.6%
SNB-75
  inhibition at 10 µM: 17.7%
SW-620
  inhibition at 10 µM: 1.08%
T-47D
  inhibition at 10 µM: 11.2%
UO-31
  inhibition at 10 µM: 31.4%
Melanoma SK-MEL-5
  inhibition at 10 µM: 16.1%
